Here are results for one compound from ChEMBL document CHEMBL4706479, “Novel Aryloxyethyl Derivatives of 1-(1-Benzoylpiperidin-4-yl)methanamine as the Extracellular Regulated Kinases 1/2 (ERK1/2) Phosphorylation-Preferring Serotonin 5-HT Receptor-Biased Agonists with Robust Antidepressant-like Activity” (J Med Chem, 2019).

A word on the Emax: it is the greatest response seen or fitted, relative to the assay's reference.

SMILES strings stand for the structures.

Series [1] has as its target T1, 5-hydroxytryptamine receptor 1A (Homo sapiens) (UniProt P08908).
T1 sequence (whole entry): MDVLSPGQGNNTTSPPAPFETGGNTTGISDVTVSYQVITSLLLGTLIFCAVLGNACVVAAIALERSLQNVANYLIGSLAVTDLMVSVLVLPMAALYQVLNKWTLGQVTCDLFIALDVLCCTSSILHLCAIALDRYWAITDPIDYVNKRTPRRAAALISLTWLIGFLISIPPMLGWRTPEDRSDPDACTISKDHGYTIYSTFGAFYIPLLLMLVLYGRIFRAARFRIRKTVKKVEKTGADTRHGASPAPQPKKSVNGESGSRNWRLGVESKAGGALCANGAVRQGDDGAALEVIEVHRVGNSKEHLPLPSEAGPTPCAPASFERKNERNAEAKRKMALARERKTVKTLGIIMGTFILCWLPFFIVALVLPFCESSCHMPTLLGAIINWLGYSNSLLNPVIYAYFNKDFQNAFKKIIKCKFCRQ
Put plainly: Biased agonist activity at human recombinant 5-HT1A receptor stably expressed in CHO-K1 cells assessed as increase in ERK1/2 phosphorylation levels incubated for 15 mins by Alphalisa assay relative to serotonin. The settings on record: filed as agonist. The class given is cell-based.

Series [2] has as its target T1, 5-hydroxytryptamine receptor 1A (Homo sapiens). Put plainly: Biased agonist activity at human recombinant 5-HT1A receptor stably expressed in CHO-K1 cells assessed as inhibition of forskolin-induced cAMP accumulation after 40 mins by LANCE Ultra cAMP kit-based TR-FRET assay relative to serotonin. Type of series: functional, cell-based. The settings on record: filed as partial agonist. (In general: Changes in cAMP serve as a functional read-out for many G protein-coupled receptors.)

A short description of series [3]: Toxicity in Wistar rat assessed as minimum effective dose causing effect on flat body posture administered subcutaneously with compound and observed after 60 mins post treatment. The settings on record: in vivo, sc, 1 h.
Series [4] has as its system Rattus norvegicus. Put plainly: Antidepressant-like activity in Wistar rat assessed as reduction in immobility time at 0.63 mg/kg, sc administered 60 mins prior to testing and measured for 5 mins test period by Porsolt-forced swim test. The class given is functional. More on the design: scale not given: the % may be the effect or the level left. As to conditions: time 65 min, 1.083 h.

Series [5] concerns Rattus norvegicus. Put plainly: Antidepressant-like activity in Wistar rat assessed as minimum effective dose causing reduction in immobility time after sc administration with compound 60 mins prior to testing and measured for 5 mins test period by Porsolt-forced swim test. Type of series: functional. The settings on record: 1 h, read-out: MED.

In the case of `CCCN(CCC)C1CCc2cccc(O)c2C1` (racemic) [8-OH-DPAT], the Emax stood at 93% in series [1] and 63% in series [2]. In series [3], the MED turned out to be 0.63 mg/kg. Moreover, the Activity in series [4] was found to be 90%. For the same compound, the minimal effective dose in series [5] came to 0.16 mg/kg.
